Read-outs that look alike come from different tables or passages of the source.

Series [1] relates to MDA-MB-231 human breast cancer cells. As to the kind of experiment: Alamar Blue cell viability (antiproliferative) assay. Particulars: 72 h, eight concentrations 0.001-50 μM, mean ± SEM, read-out: Antiproliferative Activity IC50. Type of series: cell-based.
Series [2] concerns MCF-7 cells. The experiment in a line: Lactate dehydrogenase (LDH) cytotoxicity assay. Type of series: cell-based, human. To be noted: 10 μM, 72 h, LDH release. On the procedure: The cytotoxic effects of the compounds were determined using the CytoTox 96 non-radioactive cytotoxicity assay (Promega) as previously reported. The MCF-7 cells were seeded in 96-well plates and incubated for 24 h. Cells were treated with test compounds 16, 26 and 30 at 10 μM concentration as described in the cell viability assay above. At 72 hr, 20 μL of ‘lysis solution (10X)’ was added to the control wells to ensure 100% death. The cells were incubated for a further 1 hr. Supernatant (50 μL) was removed from each well and transferred to a 96-well plate. Cytotox 96R Reagent (50 μL) was added to each well, and the plate was retained in darkness at 20 °C for 30 min. 50 μL of ‘stop solution’ was then added to each well, and the absorbance was determined at 490 nm using a Dynatech MR5000 plate reader. The cell death (%) at 10 μM was determined.
For orientation: Release of lactate dehydrogenase indicates damage to the cell membrane.

Series [3] relates to purified bovine brain tubulin. The experiment in a line: Tubulin polymerization assay (light scattering, BK006 kit). Type of series: biochemical. On the procedure:
Tubulin polymerization was monitored using the BK006 kit obtained from Cytoskeleton Inc. (Denver, CO, USA). The values reported represent the average values determined from two independent assays. Purified bovine brain tubulin (>99%, 3 mg/mL) in buffer containing PIPES (80 mM, pH 6.9), EGTA (0.5 mM), MgCl2 (2 mM), GTP (1 mM) and glycerol (10%) was incubated at 37 °C in vehicle (1% DMSO or EtOH (v/v) in dH2O) or with compounds 9h, 9q, 9s, 10h, 10p, 10r, 11h, 11p, 11r, 17f (all at 10 µM concentration); CA-4 (10 μM) was used as control. In this assay, light scattering is related to the concentration of polymerised microtubules produced. Tubulin assembly was monitored turbidimetrically at 340 nm at 37 °C in a Spectramax 340 PC spectrophotometer (Molecular Devices, Sunnyvale, CA, USA).

Series [4] has as its system microtubule network in MCF-7 cells. The experiment in a line: Immunofluorescence confocal microscopy. In kind it is cell-based, human. Particulars: 16 h. On the procedure:
CA-4 and β-lactam 9q depolymerise the microtubule network in MCF-7 cells. […] After 16 h, the cells were fixed in 4% paraformaldehyde and stained with mouse monoclonal anti-α-tubulin−FITC antibody (clone DM1A) (green), Alexa Fluor 488 dye, and counterstained with DAPI (blue). The confocal images were obtained by Leica SP8 confocal microscopy with Leica application suite X software. Representative confocal micrograph images of three separate experiments are shown above [scale bar: […]].
The effects of β-lactam 9q on MCF-7 cytoskeleton were determined using confocal microscopy as previously described. MCF-7 cells were seeded at 1 × 10^5 cells/mL in glass slides with eight chambers (BD Biosciences, San Jose, CA, USA). […] Following treatment, cells were gently washed in PBS, fixed for 20 min with 4% paraformaldehyde in PBS and permeabilised in 0.5% Triton X-100. The cells were then washed with PBS-T (PBS containing 0.1% Tween), blocked in 5% bovine serum albumin diluted in PBS-T and incubated with mouse monoclonal anti-α-tubulin-FITC antibody (clone DM1A) (Sigma, Milwaulkee, WI, USA) (1:100) for 2 h at 20 °C. The cells were washed again with PBS-T and incubated with Alexa Fluor 488 dye (1:450) for 1 h at 20 °C. Following washes in PBST, the cells were mounted in Ultra Cruz Mounting Media (Santa Cruz Biotechnology, Santa Cruz, CA, USA), which contained 4,6-diamino-2-phenolindol dihydrochloride (DAPI). The immunofluorescence cell images were captured by Leica SP8 confocal microscopy and analysed with Leica application suite X software. Microscopy experiments were performed on three independent occasions, and the images for these experiments were obtained on the same day using identical conditions.

A short description of series [5]: HPLC stability study in phosphate buffers. Type of series: physicochemical. Particulars: for remaining at 7 h, 14.6 µg/mL: phosphate buffer, study over 7 h.
Series [6] in a line: HPLC stability study in plasma. In kind it is in vitro ADME, human. To be noted: human, buffered plasma (plasma:buffer 1:9); Plasma; study over 7 h. The method, then: Analytical high-performance liquid chromatography (HPLC) stability studies were performed as follows using Symmetry® column (C18, 5 µm, 4.6 × 150 mm), Waters 2487 Dual Wavelength Absorbance detector, Waters 1525 binary HPLC pump and Waters 717 plus Autosampler (Waters Corporation, Milford, MA, USA) with detection at 254 nm as previously described. Samples were analysed using mobile phase acetonitrile (80%): water (20%), flow rate (1 mL/min) over 10 min. […] First, 30 µL of compound stock solution was diluted with appropriate buffer (1 mL); sample was shaken and injected immediately. Samples were withdrawn and analysed at the following time points: t = 0 min, 5 min, 30 min, 60 min, 90 min, 120 min, 24 h and 48 h. (ii) Thermal stability: Compound stock solution (1 mL) was placed in a glass vial on a heating block for 4 h at 60 °C. The sample was then cooled, diluted (acetonitrile) and analysed. (ii) Oxidising conditions: H2O2 (3%, 0.2 mL) was added to compound stock solution (0.8 mL). The vial was vortexed and retained at 20 °C, and the sample was analysed at 60, 120 180 and 240 min. (iv) Acidic conditions: HCl (0.1 M, 0.2 mL) was added to stock solutions (0.8 mL). The vial was mixed by vortex and retained at 20 °C. A sample was neutralised with NaOH (0.1 M, 0.2 mL) at 60, 120, 180 and 240 min, followed by HPLC analysis. (v) Alkaline conditions: NaOH (0.1 M, 0.2 mL) was added to stock solution (0.8 mL) of the compound in a vial. The vial was mixed by vortex and retained at 20 °C. A sample was neutralised with HCl (0.1 M, 0.2 mL) at 60, 120, 180 and 240 min followed by HPLC analysis. (vi) Photostability study: Compounds (stock solution, 1 mL) were placed in a vial, exposed to UV light for 4 h and then analysed by HPLC as above. Stability studies in plasma: Approval for this study was obtained from the School of Pharmacy and Pharmaceutical Sciences Trinity College Dublin Research Ethics Committee (2020–06-01-MS). Following informed consent, blood was withdrawn from healthy volunteers, and plasma was obtained by centrifugation and kept at −20 °C until further use. […] A sample (250 µL) was then added to the Eppendorf tube containing ZnSO4.7H2O solution (500 µL) (2% w/v ZnSO4 solution in acetonitrile:water, 1:1). The samples were centrifuged (10,000 rpm, 3 min), filtered (0.2 micron filter) and analysed by HPLC as above. Further samples were taken at one-hour intervals.

The test system of series [7] is MCF-7 human breast cancer cells. As to the kind of experiment: cells.
Method: All biochemical assays were performed in triplicate for the determination of mean values reported. The human breast carcinoma cell line MCF-7 was purchased from the European Collection of Animal Cell Cultures (ECACC) and was cultured in Eagle’s minimum essential medium with 10% fetal bovine serum, 2 mM L-glutamine and 100 μg/mL penicillin/streptomycin. The medium was supplemented with 1% non-essential amino acids. […] All cells were sub-cultured 3 times/week by trypsinisation.
Cells were seeded at a density of 5 × 10^3 cells/well (MCF-7) in triplicate in 96-well plates. […] Cell proliferation for MCF-7 and MDA-MB-231 cells was analysed using the Alamar Blue assay (Invitrogen Corp.). […] Experiments were performed in triplicate on at least three separate occasions.
In series [8] the test system is MCF-7 cells. The experiment in a line: Annexin-V/PI apoptosis assay.
Method: Flow cytometry using annexin-V and propidium iodide (PI) was used to detect apoptotic cell death in MCF-7 cells. […] Cells were then incubated on ice in darkness for 30 min in annexin-V-containing binding buffer [1:100]. Cells were washed once in binding buffer and then re-suspended in propidium iodide containing binding buffer [1:1000]. Cells were analysed directly using the BD Accuri flow cytometer and Prism software. Four cell populations are produced in this assay: annexin-V- and PI-negative (Q4, healthy cells), annexin-V-positive and PI-negative (Q3, early apoptosis), annexin-V- and PI-positive (Q2, late apoptosis) and annexin-V-negative and PI-positive (Q1, necrosis). CA-4 (50 nM) was used as the positive control for apoptosis.
Cells were then collected and processed for analysis.
Series [9] deals with NCI 60 human cancer cell line panel. As to the kind of experiment: NCI 60 cell line screen (SRB), panel values. To be noted: Homo sapiens, 60 cell.
Series [10] has as its system colchicine-binding site of β-tubulin (Cys239, Cys354) in MCF-7 cells. The experiment in a line: Colchicine-binding site assay (EBI crosslinking, Western blot). To be noted: 10 μM, 2 h, then EBI. A general note: Immunoblotting shows a protein as a band on a membrane.
Method: MCF-7 cells were seeded at density of 5 × 10^4 cells/well in 6-well plates and incubated overnight. […] Samples were separated by SDS-PAGE, transferred to polyvinylidene difluoride membranes and examined with β-tubulin antibodies (Sigma-Aldrich, Milwaulkee, WI, USA) [99].
Cells were harvested, lysed and then analysed using sedimentation followed by Western blotting to identify β-tubulin and β-tubulin-EBI adduct.

For the compound `COc1ccc(/C=C\c2cc(OC)c(OC)c(OC)c2)cc1O` [CA-4, Combretastatin A-4, reference compound], the IC50 turned out to be 43 nM in [1]; 3 nM in series [7] (MCF7, 72 h, MCF-7, Figure 2, 72 h); 3.9 nM in series [7] (MCF7, 72 h, read-out: Antiproliferative Activity IC50, MCF-7, 72 h, eight concentrations 1–50 μM, mean ± SEM, Table 2); 3.9 ± 0.32 nM in series [7] (MCF7, 72 h, read-out: Antiproliferative Activity IC50, MCF-7, 72 h, eight concentrations (0.001–50 mM [sic]), mean ± SEM, Table 5); 3.9 nM in series [7] (MCF7, MCF-7); 3.9 ± 0.32 nM in series [7] (MCF7, read-out: Antiproliferative Activity IC50, MCF-7, eight concentrations 0.001–50 μM, mean ± SEM, Table 3). Also, in [7] (MCF7, read-out: Antiproliferative Activity IC50, MCF-7, eight concentrations 0.001–50 μM, mean ± SEM, Table 4), the IC50 was 3.9 ± 0.32 nM. Also, the cell death in series [2] is on record as 12%. Further, the “Fold Reduction in Vmax” value in [3] was found to be 6.3. Besides, the Vmax in [3] (compound at 10 μM, 37 °C, 340 nm) was 0.0022 mOD/min. Further, the “effect on microtubule network” value in series [4] is “microtubule formation was inhibited and resulted in depolymerised microtubules”. Moreover, the time stable entry in series [5] (pH 4.0, 7.4 and 9.0 and human plasma) is on record as “more than 7 h”. Also, the fraction remaining (usually what is left of the initial amount, in per cent) at 7 h, 14.6 µg/mL in [5] (pH 4.0) is 97%; in [5] (pH 7.4), 89%; in [5] (pH 9.0), 90%. In addition, the share remaining at 7 h, 41.3 µg/mL in series [6] is 95%. Besides, the “cells undergoing apoptosis (early+late)” value in series [8] (50 nM, 72 h) was determined as 34.6%. For the same compound, the viability at 0.05 µM in series [8] (Homo sapiens, MCF7, 72 h, read-out: Viable) was 61.8%. The concentration for 50% growth inhibition (GI50) (usually the concentration giving 50% growth inhibition) in series [9] (read-out: Mean GI50, mean over all NCI 60 cell lines) is 99.3 nM. Further, the IC (TGI (total growth inhibition)) in series [9] (read-out: Mean TGI) is 10300 nM. The “formation of β-tubulin-EBI adduct” value in [10] is listed as “formation of the EBI adduct was prevented”.
